The text below walks through data of PMC11104609, “Discovery of allosteric regulators with clinical potential to stabilize alpha-L-iduronidase in mucopolysaccharidosis type I” (PLOS ONE, 2024).

Data set [1] is described as follows: Plasma pharmacokinetics of GT-01803 in mice. The class given is in vivo, male C57BL/6 mice. The settings on record: male, C57BL/6, mouse. The protocol: The in vivo pharmacokinetic (PK) profile of GT-01803 in plasma was assessed in male C57BL/6 mice after single intravenous (i.v.) and oral gavage administration (p.o.) of 2 mg/kg and 10 mg/Kg, respectively. The plasma PK evaluation was performed by Sai Life Sciences Limited (Pune, India) in accordance with guidelines of the Institutional Animal Ethics Committee (IAEC). Eighteen male mice were divided into Group 1 (i.v.: 2 mg/kg) or Group 2 (p.o.: 10 mg/kg). Animals in Group 1 and Group 2 were administered intravenously and orally with GT-01803 solution formulation in 5% N-methyl-2-pyrrolidone (NMP), 5% Solutol HS-15 and 90% saline solution at 2 and 10 mg/kg doses, respectively.
Blood samples were collected under light isoflurane anesthesia from retro-orbital plexus such that samples were obtained at 0.08, 0.25, 0.5, 1, 2, 3, 4, 6 and 8 hr. (i.v.) and Pre-dose, 0.25, 0.5, 1, 2, 3, 4, 6 and 8 hr (p.o.). At each time point, blood samples were collected from three mice. Immediately after collection, plasma was harvested by centrifugation and stored at -70 °C until analysis. All samples were processed by protein precipitation using acetonitrile and analyzed with an LC/MS/MS method suitable for the purpose (LLOQ = 1.00 ng/mL).
PK parameters were calculated using the non-compartmental analysis tool of Phoenix WinNonlin (Version 7.0). Maximum concentration (Cmax) and time to reach maximum concentration (Tmax) were the observed values. The areas under the concentration time curve (AUClast and AUCinf) […] were calculated by linear trapezoidal rule. The terminal elimination rate constant, ke, was determined by regression analysis of the linear terminal portion of the log plasma concentration-time curve. The terminal half-life (T1/2) was estimated as follows 0.693/ke; CLi.v. = Dose/AUCinf; Vss = MRT X CLi.v.; %F = [(Mean AUCp.o. × Dosei.v.) / (Mean AUCi.v. × Dosep.o.)] × 100.

Data set [2] can be described thus: Precipitation observed in DSF dose response. Particulars: DSF buffer 100 mM Hepes, 20 mM MgCl2, pH 7, 1% DMSO. It is filed as physicochemical. The procedure:
The capacity of the compounds to stabilise IDUA was assessed by DSF. The thermal denaturation of purified human native enzyme was monitored in the presence of the extrinsic fluorescent probe SYPRO® Orange (Thermo Fisher Scientific, Waltham, MA, USA), which binds to hydrophobic parts of proteins that become exposed as the protein unfolds. […] Reactions containing 12.5 μL of 1.5 μM rhIDUA protein (purchased from R&D Systems) in 100 mM Hepes, 20 mM MgCl2, pH 7, to a final protein concentration of 0.75 μM with SYPRO Orange 10X, and 12.5 μL of the different compound solutions dissolved in 100% DMSO and diluted into the protein buffer to achieve final concentrations of 1% DMSO. The intensity of SYPRO Orange fluorescence after a systematic increase in temperature was monitored in the Roche LightCycler® 480 II device (Roche Diagnostics). The significance of the melting temperature (Tm) shifts was evaluated based on two criteria: absolute ΔTm shift > 0.5 °C (instrumental criterion) and absolute ΔTm standard deviation ≤ 0.2 (statistical criterion). The thermal shift dose response was performed at various increasing concentrations (from 0.04 to 90 μM) of compound #18 (GT-01803) with rhIDUA (obtained from the Institute of Biotechnology and Biomedicine at the Autonomous University of Barcelona (UAB), Bellaterra, Spain).

For data set [3], the target named is T1, IDUA (Homo sapiens, UniProt P35475).
T1 sequence (P35475 28-653): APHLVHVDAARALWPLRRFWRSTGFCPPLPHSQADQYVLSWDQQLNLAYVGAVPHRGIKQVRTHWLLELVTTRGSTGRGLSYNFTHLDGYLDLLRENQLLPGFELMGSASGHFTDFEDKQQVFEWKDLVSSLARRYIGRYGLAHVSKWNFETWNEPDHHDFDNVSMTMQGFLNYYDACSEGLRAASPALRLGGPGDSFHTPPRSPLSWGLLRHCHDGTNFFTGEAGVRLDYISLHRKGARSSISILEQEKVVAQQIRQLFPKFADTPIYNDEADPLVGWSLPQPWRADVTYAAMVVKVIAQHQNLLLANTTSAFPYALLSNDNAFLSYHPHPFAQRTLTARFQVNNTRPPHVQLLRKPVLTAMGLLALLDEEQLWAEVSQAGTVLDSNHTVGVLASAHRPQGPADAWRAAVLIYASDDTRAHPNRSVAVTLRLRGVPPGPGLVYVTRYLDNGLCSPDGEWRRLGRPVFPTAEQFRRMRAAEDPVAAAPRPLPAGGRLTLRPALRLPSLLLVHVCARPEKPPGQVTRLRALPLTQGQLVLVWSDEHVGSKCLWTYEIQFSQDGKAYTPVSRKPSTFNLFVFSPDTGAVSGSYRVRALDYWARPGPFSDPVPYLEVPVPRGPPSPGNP
The experiment in a line: Denaturation prevention (isothermal denaturation) assay with SYPRO Orange. It is filed as binding. The arrangement: purchased R&D Systems. Particulars: 30 μM compound, pH 7.0, 37 °C. The procedure: The capacity of the compounds to stabilize IDUA in neutral pH buffer was assessed using the denaturation prevention assay. Briefly, rhIDUA (obtained from the Institute of Biotechnology and Biomedicine in the UAB, Bellaterra, Spain) was combined to a final concentration of 1 μM with 5X SYPRO Orange and 30 μM of the corresponding compound in a final reaction volume of 25 μL in 100 mM Hepes, 20 mM MgCl2, pH 7 buffer, or 25 mM NaAc, 150 mM NaCl, pH 5.2. Reactions were incubated at 37 °C, and SYPRO Orange fluorescence intensity was monitored at the indicated time points using Glomax® Discover microplate reader (Promega, Madison, WI, USA). Two independent experiments in triplicate at one concentration (30μM) of compound #18 (GT-01803) were performed for denaturation prevention assays.

A word on the AUC(0-inf): it is the area under the concentration-time curve extrapolated to infinity. A lower AUC(0-inf) goes with low exposure. As usually defined, the AUC(0-t) is exposure summed from dosing to a finite time, without extrapolation to infinity. The term clearance denotes the rate of elimination divided by the concentration. Read a high clearance as a high capacity for elimination. Usually half-life stands for the time in which the quantity being followed falls by half. Low values mean rapid decline, high ones slow decline. The bioavailability is the share of a dose that reaches the circulation, judged against a reference dose that is usually intravenous. The Cmax is the maximum level reached in the sampled fluid or tissue. What is called Tmax is the time from dosing to the highest level.

In data set [1] (iv, 2 mg/kg), `CCN(CC(=O)Nc1c(Cl)cccc1Cl)Cc1nc2ccsc2c(=O)[nH]1` [GT-01803] showed an AUC(0-inf) of 13600 ng·h/mL, an AUC(0-t) of 13300 ng·h/mL, a clearance of 2.45 mL/min/kg and a half-life of 3.54 h. Also, in data set [1] (iv, 2 mg/kg, read-out: C0 (back extrapolated conc.)), the C0 was 33500 ng/mL. Also, in data set [1] (iv, 2 mg/kg, read-out: Vss), the Vd was found to be 0.13 L/kg. Also, the bioavailability in data set [1] (oral, p.o. 10 mg/kg vs i.v. 2 mg/kg, AUClast considered, read-out: %F (oral bioavailability)) turned out to be 50%. Besides, in data set [1] (po, 10 mg/kg), the area under the curve AUC(0-inf) came out at 33200 ng·h/mL, the AUC(0-t) came out at 33000 ng·h/mL, the Cmax was found to be 33900 ng/mL and the Tmax is 0.25 h. The “concentration at which precipitation was observed” value in data set [2] is 100 µM. In data set [3], the “pH-induced denaturation of rhIDUA” value was “slowed down”.
